Read-outs that look alike come from different tables or passages of the source.
What was measured:
[1] = tested on: ben-1 mutant (ECA882) C. elegans; experiment: microbe, parasite or virus in culture; conditions: Caenorhabditis elegans
Method: Liquid development and viability assays were adapted from a previously established chemical screening protocol (Burns et al.)[24]. In brief, a saturated culture of E. coli HB101 was concentrated 2-fold in liquid NGM and 40 μL of this suspension was distributed to each well of a 96-well flat-bottom culture plate. 0.5 μL chemical solution (or DMSO alone) was added to each well (1% DMSO v/v) using either a multi-channel pipette or a pinning tool (V&P Scientific). L1 worms synchronized from an embryo preparation performed the day prior were diluted to a concentration of ~2 worms/μL in M9 buffer; 10 μL worm suspension was then added to each well. Culture plates were sealed with parafilm and placed in a plastic container lined with wet paper towels to prevent evaporation. Containers were then incubated for 6 days at 20 °C with shaking at 165 rpm. Following incubation, 300 μL M9 was added to each well to decrease the turbidity of the HB101-NGM suspension. Single images of each microplate well were then taken on a Nikon Ti Eclipse inverted microscope (Nikon NIS Elements AR). Images were processed using Python scripts to isolate worm-associated pixels from background. Scores of worm development and viability were determined as the sum of worm-associated pixels in each well. Development/viability scores for each well were divided by the development /viability scores for the corresponding DMSO controls, resulting in a relative viability value for each chemical. At least three biological replicates were performed for each dose-response experiment; relative viability values were averaged across replicates. […]
anthelmintics. a. Chemical structures of four commercial benzimidazole anthelmintics (e.g., albendazole, […]
Dose response of four commercial […]
elegans strains: N2, wild type; ECA882, deletion (ben-1); ECA917, F200Y (ben-1); ECA1075, F167Y (ben-1); ECA1080, E198A (ben-1); CB3474, G104D (ben-1). The colour-coded scale denotes the phenotypic outcome of drug treatment (e.g., motility or viability) relative to DMSO controls; white/pale- […]
death and arrested development. c. […]
benzimidazole anthelmintics (blue) were conducted in C. elegans development and viability assays for wild type (N2) and ben-1 mutant (ECA882) C. elegans (see Supplementary Date File 1).
All data used for generation of dose-response curves is the mean of at least three […]
Supplementary Figure 7 (continued). Davie et al.

L1 wild-type C. elegans [2] = conditions: […]; for Relative Motility: relative to DMSO controls, single biological replicate
[3] = molecular target: C. elegans (N2) complex I (NADH:ubiquinone oxidoreductase) (Caenorhabditis elegans, UniProt P24887+Q93873+Q94360); experiment: biochemical; type: biochemical; conditions: for Log IC50 C. elegans complex I: log10 of IC50 in µM, C. elegans mitochondria
Chain of C. elegans (N2) complex I (NADH:ubiquinone oxidoreductase) (Q94360 17-199): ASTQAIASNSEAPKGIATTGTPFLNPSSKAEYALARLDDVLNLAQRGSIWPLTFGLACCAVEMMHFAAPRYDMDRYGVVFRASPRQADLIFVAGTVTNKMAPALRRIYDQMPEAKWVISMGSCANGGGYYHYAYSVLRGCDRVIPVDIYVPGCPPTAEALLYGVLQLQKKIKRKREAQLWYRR
Chain of C. elegans (N2) complex I (NADH:ubiquinone oxidoreductase) (P24887 whole entry): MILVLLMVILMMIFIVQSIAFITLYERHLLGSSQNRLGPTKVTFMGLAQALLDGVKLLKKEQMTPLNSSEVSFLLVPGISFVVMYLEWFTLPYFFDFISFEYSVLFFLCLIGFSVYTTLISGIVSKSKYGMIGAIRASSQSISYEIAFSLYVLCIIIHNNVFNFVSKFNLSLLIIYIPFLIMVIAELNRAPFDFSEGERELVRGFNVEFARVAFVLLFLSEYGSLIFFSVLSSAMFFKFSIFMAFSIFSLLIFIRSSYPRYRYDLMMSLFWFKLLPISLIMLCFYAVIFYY
Chain of C. elegans (N2) complex I (NADH:ubiquinone oxidoreductase) (Q93873 31-482): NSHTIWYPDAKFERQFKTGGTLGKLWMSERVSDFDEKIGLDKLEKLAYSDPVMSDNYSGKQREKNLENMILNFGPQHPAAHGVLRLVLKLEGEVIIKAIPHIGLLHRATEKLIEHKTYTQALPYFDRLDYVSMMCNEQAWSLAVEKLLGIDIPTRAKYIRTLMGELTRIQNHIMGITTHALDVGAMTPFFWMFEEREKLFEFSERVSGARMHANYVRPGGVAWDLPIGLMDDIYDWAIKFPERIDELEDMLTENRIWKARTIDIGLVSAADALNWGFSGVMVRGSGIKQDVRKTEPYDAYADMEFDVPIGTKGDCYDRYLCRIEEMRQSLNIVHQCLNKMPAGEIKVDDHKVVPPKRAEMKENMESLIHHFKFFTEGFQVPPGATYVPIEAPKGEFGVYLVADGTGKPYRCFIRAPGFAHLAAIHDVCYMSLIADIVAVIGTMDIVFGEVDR
Method: Mitochondria were isolated from the following free-living nematode strains: C. elegans—N2, CB3474, ECA882, ECA917, ECA1075, ECA1080; C. briggsae—AF16; P. pacificus—PS312; and P. hermaphrodita—B178. With the exception of the P. hermaphrodita strain B178, adult worms of each strain were grown in bulk through liquid culture to obtain mitochondria in sufficient quantities. Due to poor growth in liquid media, mixed stage populations of P. hermaphrodita were washed off and collected from NGM plates seeded with OP50. The isolation of mitochondria from all free-living nematode strains followed the protocol previously outlined in Burns et al.[24]. In brief, a 1 L saturated culture of E. coli HB101 was concentrated 20-fold in 50 mL complete S-medium. ~500,000 L1 worms synchronized from an embryo preparation performed the day prior were added to the S-media/HB101 suspension and grown to adulthood over the course of 3.5 days at 20 °C with shaking at 165 rpm. Following growth, worms were collected in 10 ×15 mL conical tubes and washed 7 times in M9 buffer. Worm suspensions were then combined into a single 15 mL conical tube and diluted to a final volume of 15 mL with M9 buffer. 1 mL aliquots of worm suspension were then distributed to 15 × 1.5 mL screw-cap microcentrifuge tubes and were pelleted at 500 g for 1 min. Excess M9 was aspirated without disturbing the worm pellet. 600 μL ice-cold isolate buffer A (250 mM sucrose, 10 mM Tris (pH 7.5), 1 mM EDTA, 1 mM PMSF (freshly prepared)) and 300 μL cold glass beads were then added to each tube. Tubes were incubated on ice for 10 min, and the worms were then lysed by bead beating (6 x 30 s, with 1 min cooling intervals). Tubes containing worm lysate were centrifuged at 1,000 g for 10 min at 4 °C and the supernatant was transferred to 15 new microcentrifuge tubes on ice. The tubes were centrifuged a second time at 1,000 g for 10 min at 4 °C and the supernatant was once again transferred to 15 new microcentrifuge tubes on ice. These tubes were then centrifuged at 16,000 g for 10 min at 4 °C. The resulting mitochondrial pellet was washed twice by re-suspension in 300 μL of ice-cold isolate buffer B (250 mM sucrose, 10 mM Tris (pH 7.5), 1 mM EDTA). Following the final wash, isolation buffer was aspirated from each tube and the pellets were flash-frozen in ethanol/dry ice and stored at −80 °C until needed.
(§1) The enzymatic activities of individual ETC complexes (I-IV) were assessed spectrophotometrically in isolated mitochondria using a Varioskan LUX Multimode plate reader (ThermoFisher Scientific). Mitochondrial pellets previously isolated were thawed on ice and resuspended in ice-cold isolation buffer (250 mM sucrose, 10 mM Tris (pH 7.5), 1 mM EDTA). The BCA assay (Walker, 1994) was used to quantify the protein concentration of mitochondria suspensions; solutions were diluted to a concentration of 0.2 mg/mL for use in all assays. For the complex I assay, mitochondria pellets were freeze-thawed on ice three times to increase enzyme accessibility. […] 20 μL mitochondria suspension was then added/mixed with a pipette to initiate the reaction. Immediately following the addition of mitochondria, absorbance was measured (complex I and II: 600 nm; complex III and IV: 550 nm) in 30 s intervals over 15 min. Enzymatic activity was determined in each reaction by plotting absorbance versus time and calculating the slope of the curve during the initial linear phase of the reaction. […] Percent activity of each complex was calculated by dividing the enzyme-specific activity of each well by the enzyme-specific activity of the corresponding solvent controls.
(§2) Chemical solutions were prepared in complex I assay buffer composed of 25 mM KPi buffer (pH 7.5), 3 mg/mL bovine serum albumin (BSA), 80 μM NADH, 60 μM decylubiquinone, 160 μM DCIP, 2 μM antimycin A and 2 mM KCN.
For preliminary screens of hit compounds, compounds were screened at 100 μM; data are the average of at least three biological replicates.

L1 wild-type C. elegans [4] = experiment: microbe, parasite or virus in culture; conditions: Caenorhabditis elegans, read-out: C. elegans KCN Survival Assay LC50, estimated from fitted dose-response curves; mean of at least two biological replicates
[5] = molecular target: B. taurus (heart) complex I (Bos taurus, UniProt P03887+P17694+P42026); experiment: biochemical; type: biochemical; conditions: for IC50: B. taurus heart mitochondria, read-out: B. taurus Complex I IC50; for Log IC50 B. taurus complex I: log10 of IC50 in µM, B. taurus mitochondria
Chain of B. taurus (heart) complex I (P03887 whole entry): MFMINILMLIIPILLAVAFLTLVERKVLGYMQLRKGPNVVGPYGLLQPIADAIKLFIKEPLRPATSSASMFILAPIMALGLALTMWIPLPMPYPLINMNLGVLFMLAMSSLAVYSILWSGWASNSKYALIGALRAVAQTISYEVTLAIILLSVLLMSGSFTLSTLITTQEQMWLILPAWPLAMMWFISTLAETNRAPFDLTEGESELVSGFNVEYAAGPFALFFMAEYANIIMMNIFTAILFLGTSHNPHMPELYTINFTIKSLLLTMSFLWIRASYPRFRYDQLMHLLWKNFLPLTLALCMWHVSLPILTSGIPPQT
Chain of B. taurus (heart) complex I (P17694 34-463): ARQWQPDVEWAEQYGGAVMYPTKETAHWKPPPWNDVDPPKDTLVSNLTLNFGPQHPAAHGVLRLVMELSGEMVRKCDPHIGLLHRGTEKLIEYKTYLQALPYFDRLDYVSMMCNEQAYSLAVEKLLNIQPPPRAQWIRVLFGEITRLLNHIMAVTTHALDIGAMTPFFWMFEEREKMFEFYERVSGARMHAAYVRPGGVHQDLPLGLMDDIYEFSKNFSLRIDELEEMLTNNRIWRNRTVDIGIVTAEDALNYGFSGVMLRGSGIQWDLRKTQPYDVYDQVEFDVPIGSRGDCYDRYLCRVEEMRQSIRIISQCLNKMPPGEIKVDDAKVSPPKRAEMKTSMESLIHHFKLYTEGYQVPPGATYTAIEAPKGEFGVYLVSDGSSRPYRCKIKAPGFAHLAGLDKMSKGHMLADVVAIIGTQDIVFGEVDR
Chain of B. taurus (heart) complex I (P42026 38-216): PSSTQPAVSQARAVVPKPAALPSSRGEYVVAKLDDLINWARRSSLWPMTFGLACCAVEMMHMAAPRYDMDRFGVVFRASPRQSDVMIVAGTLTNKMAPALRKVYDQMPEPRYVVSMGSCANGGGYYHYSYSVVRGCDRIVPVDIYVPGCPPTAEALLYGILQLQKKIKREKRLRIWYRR
Method: Six 8–10-week-old C57Bl/6 female mice (Charles River) were freshly dissected, and their livers and hearts collected into separate 1.5 mL microcentrifuge tubes. Organs were flash-frozen in liquid nitrogen and stored at −80 °C prior to use. The heart of a freshly slaughtered adult cow was obtained from a local abattoir (Peel Sausage Inc.), chopped into ~1-inch cubes and collected into 50 mL falcon tubes. Falcon tubes were flash-frozen in a container of dry ice and stored at −80 °C prior to use. Isolation of mitochondria from all mammalian tissue was carried out following the protocol described above. However, due to size, the initial homogenization of tissue was performed by 15 strokes in a dounce homogenizer (mouse heart) or with several 5 s pulses in small Nutribullet blender (cow heart). All mouse protocols for mouse care and dissection were reviewed and approved by the University of Toronto Animal Care Committee, in accordance with the Canadian Council on Animal Care.
as §1, §2
For preliminary screens of hit compounds, compounds were screened at 100 μM; data are the average of at least three biological replicates. The complex I and II activity assays were used for additional dose-response experiments. […] For dose responses of benzimidazole analogs, data represent the average of two biological replicates. For all other dose-responses, data represent the average of at least three biological replicates.

in vitro = conditions: human
[6] = read-out: C. elegans (ben-1) Development & Viability Assay LC50
[7] = read-out: C. elegans ben-1 log10 LC50 (converted)
[8] = in vitro complex I dose response on C. elegans mitochondria, average of at least two biological replicates, fit in R (DRC), read-out: IC50 C. elegans complex I
[9] = 50 μM compound, hit = relative motility below 0.25 3 hours after removal of KCN
[10] = 50 μM compound, worm motility 3 hours after removal of KCN
[11] = wild-type C. elegans mitochondria, read-out: C. elegans Complex I IC50

c1ccc2[nH]c(CSc3nc4ccccc4o3)nc2c1 [Compound 5668941]
LC50 [1, 6]: 123 µM | LC50 [1, 7]: 123 µM | Screen "Hit" (L1 wild-type C. elegans [2]; 50 μM, KCN survival assay, hit = relative motility below 0.25): Y (hits were identified as compounds that reduced relative motility below 0.25 (75% reduction)) | Relative Motility (L1 wild-type C. elegans [2]; 50 μM, worm motility 3 hours after the removal of KCN (endpoint)): 0.130 | IC50 [3, 8]: 19.6 µM | Log IC50 C. elegans complex I [3]: 1.29 µM | IC50 ([3]; wild-type C. elegans mitochondria, estimated from fitted dose-response curves, read-out: C. elegans Complex I IC50): 19.6 µM | LC50 (L1 wild-type C. elegans [4]): 26.8 µM

CCc1ccc(CNc2nc3ccccc3n2C)cc1 [STK498539]
LC50 [1, 6]: 214 µM | LC50 [1, 7]: 214 µM | Screen "Hit" (L1 wild-type C. elegans [2]; [9]): Y (hits were identified as compounds that reduced relative motility below 0.25 (75% reduction)) | Relative Motility (L1 wild-type C. elegans [2]; [10]): 0.042 | IC50 [3, 8]: 40.8 µM | Log IC50 C. elegans complex I [3]: 1.61 µM | IC50 [3, 11]: 40.8 µM | LC50 (L1 wild-type C. elegans [4]): 30.5 µM

Cn1c(Cc2ccc(Cl)cc2)nc2ccccc21 [Compound 9005666]
LC50 [1, 6]: 193 µM | LC50 [1, 7]: 193 µM | Screen "Hit" (L1 wild-type C. elegans [2]; [9]): Y (hits were identified as compounds that reduced relative motility below 0.25 (75% reduction)) | IC50 [5]: 33.3 µM | Log IC50 B. taurus complex I [5]: 1.52 µM | IC50 [3, 8]: 8.27 µM | Log IC50 C. elegans complex I [3]: 0.92 µM | IC50 ([3]; wild-type (N2) mitochondria, read-out: C. elegans Complex I IC50): 8.27 µM | IC50 [3, 11]: 8.27 µM | CC50 at 2 days (in vitro): > 100 µM | LC50 (L1 wild-type C. elegans [4]): 28.6 µM

CCc1ccc(OC(C)c2nc3ccccc3[nH]2)cc1 (stereo not drawn) [STK914290]
LC50 [1, 6]: 227 µM | LC50 [1, 7]: 228 µM | Screen "Hit" (L1 wild-type C. elegans [2]; [9]): Y (hits were identified as compounds that reduced relative motility below 0.25 (75% reduction)) | Relative Motility (L1 wild-type C. elegans [2]; [10]): 0.082 | IC50 [3, 8]: 71.3 µM | Log IC50 C. elegans complex I [3]: 1.85 µM | IC50 [3, 11]: 71.3 µM | LC50 (L1 wild-type C. elegans [4]): 22.4 µM

c1ccc(-c2noc(CCCCc3nc4ccccc4[nH]3)n2)cc1 [STK633241]
LC50 [1, 6]: > 1000 µM | LC50 ([1]; read-out: C. elegans ben-1 LC50): > 500 µM | LC50 [1, 7]: > 500 µM | Screen "Hit" (L1 wild-type C. elegans [2]; [9]): Y (hits were identified as compounds that reduced relative motility below 0.25 (75% reduction)) | IC50 [5]: 18.5 µM | Log IC50 B. taurus complex I [5]: 1.27 µM | IC50 [3, 8]: 20.6 µM | Log IC50 C. elegans complex I [3]: 1.31 µM | IC50 [3, 11]: 20.6 µM | LC50 (L1 wild-type C. elegans [4]): 19.4 µM

Reference: PMC11079024, “Identification of a family of species-selective complex I inhibitors as potential anthelmintics” (Nature Communications, 2024)
